The text below walks through data of patent US12441689B2 (EpiVario, Inc., priority 2019, dated 2025).

human ACSS2 protein, sequence (Q9NR19 whole entry): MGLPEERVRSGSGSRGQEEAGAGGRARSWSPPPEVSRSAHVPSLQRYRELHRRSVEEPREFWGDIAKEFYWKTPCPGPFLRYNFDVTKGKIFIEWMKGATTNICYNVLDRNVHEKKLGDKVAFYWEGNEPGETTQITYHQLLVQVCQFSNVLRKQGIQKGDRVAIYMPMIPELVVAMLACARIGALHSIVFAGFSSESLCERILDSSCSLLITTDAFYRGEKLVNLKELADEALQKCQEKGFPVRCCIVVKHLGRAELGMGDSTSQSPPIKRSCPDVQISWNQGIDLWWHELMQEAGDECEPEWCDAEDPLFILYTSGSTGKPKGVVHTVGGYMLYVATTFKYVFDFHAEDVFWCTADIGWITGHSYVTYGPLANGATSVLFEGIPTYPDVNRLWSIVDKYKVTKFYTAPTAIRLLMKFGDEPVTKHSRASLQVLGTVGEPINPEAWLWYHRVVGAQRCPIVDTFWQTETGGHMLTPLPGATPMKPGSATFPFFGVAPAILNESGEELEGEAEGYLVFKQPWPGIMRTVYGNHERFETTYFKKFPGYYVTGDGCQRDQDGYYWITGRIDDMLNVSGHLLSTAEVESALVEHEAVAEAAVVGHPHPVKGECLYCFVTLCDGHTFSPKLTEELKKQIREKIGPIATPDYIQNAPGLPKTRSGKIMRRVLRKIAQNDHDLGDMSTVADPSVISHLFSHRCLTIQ

For the experiment, the target named is human ACSS2 protein (Homo sapiens (Human), UniProt Q9NR19). The experiment can be described thus: ACSS2 Cell-Free Activity Assay (Cell-Free IC50). As to conditions: 10 nM human ACSS2 protein, 90 minutes at 37 C, pyrophosphatase-coupled, Biomol Green absorbance at 620 nm; read-out: ACSS2 Biochemical IC50. An excerpt:
ACSS2 Cell-Free Activity Assay (Cell-Free IC50)
With `Cc1c(C(=O)Nc2cccc(C(C)(F)F)c2)c(=O)n(-c2ccc3cc[nH]c3c2)n1Cc1ccccc1` [Compound 108, 1-benzyl-N-[3-(1,1-difluoroethyl)phenyl]-2-(1H-indol-6-yl)-5-methyl-3-oxo-pyrazole-4-carboxamide], the IC50 was over 100 nM.

As to `COc1ccc(N2N=C(C)C(F)(C(=O)Nc3cccc(C(C)(F)F)c3)C2=O)cc1` (stereo not drawn) [Compound 209, N-(3-(1,1-difluoroethyl)phenyl)-4-fluoro-1-(4-methoxyphenyl)-3-methyl-5-oxo-4,5-dihydro-1H-pyrazole-4-carboxamide], the IC50 is under 1 nM.

`CCC(F)(F)c1cccc(NC(=O)c2nc(-c3ccc(OC(F)F)c(-c4ccccn4)c3)oc2C)c1` [Compound 259, 2-(4-(difluoromethoxy)-3-(pyridin-2-yl)phenyl)-N-(3-(1,1-difluoropropyl)phenyl)-5-methyloxazole-4-carboxamide]: the IC50 was over 100 nM.

Take `Cc1ncc(-c2ccc(OC(F)F)cc2)nc1C(=O)Nc1cccc(C(C)(F)F)c1` [Compound 126, N-(3-(1,1-difluoroethyl)phenyl)-6-(4-(difluoromethoxy)phenyl)-3-methylpyrazine-2-carboxamide]: the IC50 was over 100 nM.

Consider `CCC(F)(F)c1cccc(NC(=O)C2C(=O)N(c3cc(CC4CCCCC4)c(OC)c(-c4ccccc4)c3)N=C2C)c1` (stereo not drawn) [Compound 128, 1-(5-(cyclohexylmethyl)-6-methoxy-[1,1′-biphenyl]-3-yl)-N-(3-(1,1-difluoropropyl)phenyl)-3-methyl-5-oxo-4,5-dihydro-1H-pyrazole-4-carboxamide], for which the IC50 lay within 1 to 100 nM.

Consider `Cc1nn(-c2ccc(OC(F)F)cc2)cc1C(=O)Nc1cccc(C(C)(F)F)c1` [Compound 196, N-(3-(1,1-difluoroethyl)phenyl)-1-(4-(difluoromethoxy)phenyl)-3-methyl-1H-pyrazole-4-carboxamide], for which the half-maximal inhibitory concentration (IC50) lay in the range of 1 to 100 nM.

Regarding `CCC(F)(F)c1cccc(NC(=O)C2(Cl)C(=O)N(c3ccc(OC(F)F)cc3)N=C2C)c1` (stereo not drawn) [Compound 163, 4-chloro-1-(4-(difluoromethoxy)phenyl)-N-(3-(1,1-difluoropropyl)phenyl)-3-methyl-5-oxo-4,5-dihydro-1H-pyrazole-4-carboxamide], the IC50 is under 1 nM.

On to `CC1=NN(c2ccc(OC(F)F)cc2)C(=O)C1(C)C(=O)Nc1cccc(C(C)(F)F)c1` (stereo not drawn) [Compound 174, N-(3-(1,1-difluoroethyl)phenyl)-1-(4-(difluoromethoxy)phenyl)-3,4-dimethyl-5-oxo-4,5-dihydro-1H-pyrazole-4-carboxamide], for which the IC50 is over 100 nM.

“N-(3-(1,1-difluoroethyl)phenyl)-2-(6-(difluoromethoxy)-[1,1′-biphenyl]-3-yl)-4-methyloxazole-5-carboxamide [Compound 115]”: the IC50 is over 100 nM.

Take `Cc1nn(-c2ccc(OC(F)F)c(-c3ccccc3)c2)cc1C(=O)Nc1cccc(C(C)(F)F)c1` [Compound 186, N-(3-(1,1-difluoroethyl)phenyl)-1-(6-(difluoromethoxy)-[1,1’-biphenyl]-3-yl)-3-methyl-1H-pyrazole-4-carboxamide]: the IC50 lay within 1 to 100 nM.

For `CCC(F)(F)c1cccc(NC(=O)c2nc(-c3ccc(OC(F)F)cc3)cnc2C)c1` [Compound 125, 6-(4-(difluoromethoxy)phenyl)-N-(3-(1,1-difluoropropyl)phenyl)-3-methylpyrazine-2-carboxamide], the IC50 is over 100 nM.

Consider `CCC(F)(F)c1cccc(NC(=O)c2c(C)[nH]c(-c3ccc(OC)cc3)c2O)c1` [Compound 235, N-(3-(1,1-difluoropropyl)phenyl)-4-hydroxy-5-(4-methoxyphenyl)-2-methyl-1H-pyrrole-3-carboxamide], for which the IC50 is over 100 nM.

Turning to `CC(=O)c1c(C(=O)Nc2cccc(C(C)(F)F)c2)c(C)nn1-c1ccc(OC(F)F)cc1` [Compound 193, 5-acetyl-N-(3-(1,1-difluoroethyl)phenyl)-1-(4-(difluoromethoxy)phenyl)-3-methyl-1H-pyrazole-4-carboxamide], the IC50 was over 100 nM.

On to `Cc1nn(-c2ccc(OC(F)F)c(-c3cccnc3)c2)cc1C(=O)Nc1cccc(C(C)(F)F)c1` [Compound 182, N-(3-(1,1-difluoroethyl)phenyl)-1-(4-(difluoromethoxy)-3-(pyridin-3-yl)phenyl)-3-methyl-1H-pyrazole-4-carboxamide], for which the half-maximal inhibitory concentration (IC50) is 1 to 100 nM.

Regarding `CCc1c(C(=O)Nc2cccc(C(C)(F)F)c2)c(C)nn1-c1ccc(OC(F)F)cc1` [Compound 156, N-(3-(1,1-difluoroethyl)phenyl)-1-(4-(difluoromethoxy)phenyl)-5-ethyl-3-methyl-1H-pyrazole-4-carboxamide], the IC50 was over 100 nM.

Turning to `CCC(F)(F)c1cccc(NC(=O)c2cnc(-c3ccc(OC(F)F)cc3)nc2C)c1` [Compound 143, 2-[4-(difluoromethoxy)phenyl]-N-[3-(1,1-difluoropropyl)phenyl]-4-methyl-pyrimidine-5-carboxamide], the IC50 is over 100 nM.

For the molecule `Cc1nn(-c2ccc(OC(F)F)cc2)nc1C(=O)Nc1cccc(C(C)(F)F)c1` [Compound 164, N-(3-(1,1-difluoroethyl)phenyl)-2-(4-(difluoromethoxy)phenyl)-5-methyl-2H-1,2,3-triazole-4-carboxamide], the 50% inhibitory concentration (IC50) was over 100 nM.

Turning to `Cc1nn(-c2ccc(OC(F)F)cc2)c(OC(=O)N2CCC(N3CCCCC3)CC2)c1C(=O)Nc1cccc(C(C)(F)F)c1` [Compound 189, 4-((3-(1,1-difluoroethyl)phenyl)carbamoyl)-1-(4-(difluoromethoxy)phenyl)-3-methyl-1H-pyrazol-5-yl [1,4′-bipiperidine]-1′-carboxylate], the IC50 fell in the range of 1 to 100 nM.

Take `CCC(F)(F)c1cccc(NC(=O)c2nc(-c3ccc(OC(F)F)c(-c4ccccc4)c3)oc2C)c1` [Compound 123, 2-[4-(difluoromethoxy)-3-phenyl-phenyl]-N-[3-(1,1-difluoropropyl)phenyl]-5-methyl-oxazole-4-carboxamide]: the half-maximal inhibitory concentration (IC50) was over 100 nM.

In the case of `CC1=NN(c2ccc(OC(F)F)cc2)C(=O)C1(C)C(=O)Nc1cccc(Cl)c1` (stereo not drawn) [Compound 167, N-(3-chlorophenyl)-1-[4-(difluoromethoxy)phenyl]-3,4-dimethyl-5-oxo-pyrazole-4-carboxamide], the IC50 was over 100 nM.

Regarding `CCC(F)(F)c1cccc(NC(=O)c2c(C)oc(-c3ccc(OC)cc3)[n+]2[O-])c1` [Compound 250, 4-((3-(1,1-difluoropropyl)phenyl)carbamoyl)-2-(4-methoxyphenyl)-5-methyloxazole 3-oxide], the IC50 was over 100 nM.

For `CC(F)(F)c1cccc(NC(=O)C2C(=O)N(c3ccc(OC(F)F)cc3)N=C2CS)c1` (stereo not drawn) [Compound 197], the IC50 is over 100 nM.

Turning to `CCC(F)(F)c1cccc(NC(=O)c2c(C)oc(-c3ccc(OC)c(-c4ncccc4C)c3)[n+]2[O-])c1` [Compound 251, 4-((3-(1,1-difluoropropyl)phenyl)carbamoyl)-2-(4-methoxy-3-(3-methylpyridin-2-yl)phenyl)-5-methyloxazole 3-oxide], the IC50 was over 100 nM.

For `COc1c(Cc2ccccc2)cc(N2N=C(C)C(C(=O)Nc3cccc(C(C)(F)F)c3)C2=O)cc1-c1ccccc1` (stereo not drawn) [Compound 122, 1-(5-benzyl-6-methoxy-[1,1′-biphenyl]-3-yl)-N-(3-(1,1-difluoroethyl)phenyl)-3-methyl-5-oxo-4,5-dihydro-1H-pyrazole-4-carboxamide], the IC50 was under 1 nM.

For the molecule `CCC(F)(F)c1cccc(NC(=O)c2cnc(-c3ccc(OC(F)F)c(-c4ccccn4)c3)nc2C)c1` [Compound 119, 2-(4-(difluoromethoxy)-3-(pyridin-2-yl)phenyl)-N-(3-(1,1-difluoropropyl)phenyl)-4-methylpyrimidine-5-carboxamide], the IC50 is over 100 nM.

Take `CC1=NN(c2ccc(OC(F)F)cc2)C(=O)C1(C)C(=O)Nc1cc(Cl)c(F)c(Cl)c1` (stereo not drawn) [Compound 165, N-(3,5-dichloro-4-fluoro-phenyl)-1-[4-(difluoromethoxy)phenyl]-3,4-dimethyl-5-oxo-pyrazole-4-carboxamide]: the concentration for half-maximal inhibition (IC50) is over 100 nM.

On to `CCC(F)(F)c1cccc(NC(=O)c2c(C)nn(-c3ccc(OC)cc3)c2C(C)=O)c1` [Compound 230, 5-acetyl-N-(3-(1,1-difluoropropyl)phenyl)-1-(4-methoxyphenyl)-3-methyl-1H-pyrazole-4-carboxamide], for which the IC50 was over 100 nM.

Take `Cc1nn(-c2ccc(OC(F)F)c(-c3ccccc3)c2)c(C)c1C(=O)Nc1cccc(C(C)(F)F)c1` [Compound 178]: the IC50 is 1 to 100 nM.

With `CCC(F)(F)c1cccc(NC(=O)c2cc(C)nc(-c3ccc(OC(F)F)c(-c4ccccc4)c3)n2)c1` [Compound 127, 2-(6-(difluoromethoxy)-[1,1′-biphenyl]-3-yl)-N-(3-(1,1-difluoropropyl)phenyl)-6-methylpyrimidine-4-carboxamide], the IC50 is over 100 nM.

Regarding `CCCC1(C(=O)Nc2cccc(C(C)(F)F)c2)C(=O)N(c2ccc(OC(F)F)cc2)N=C1C` (stereo not drawn) [Compound 158, N-(3-(1,1-difluoroethyl)phenyl)-1-(4-(difluoromethoxy)phenyl)-3-methyl-5-oxo-4-propyl-4,5-dihydro-1H-pyrazole-4-carboxamide], the concentration for half-maximal inhibition (IC50) is over 100 nM.

Take `CC(F)(F)c1cccc(NC(=O)c2cnc(-c3ccc(OC(F)F)cc3)nc2)c1` [Compound 173, N-(3-(1,1-difluoroethyl)phenyl)-2-(4-(difluoromethoxy)phenyl)pyrimidine-5-carboxamide]: the half-inhibitory concentration (IC50) was over 100 nM.

Turning to `CCC(F)(F)c1cccc(NC(=O)c2n[nH]c(-c3ccc(OC)cc3)c2C(C)=O)c1` [Compound 232, 4-acetyl-N-(3-(1,1-difluoropropyl)phenyl)-5-(4-methoxyphenyl)-1 H-pyrazole-3-carboxamide], the 50% inhibitory concentration (IC50) was over 100 nM.

Turning to `CCC(F)(F)c1cccc(NC(=O)c2nc(C)c(-c3ccc(OC(F)F)c(-c4ccccc4)c3)nc2C)c1` [Compound 103, 5-(6-(difluoromethoxy)-[1,1′-biphenyl]-3-yl)-N-(3-(1,1-difluoropropyl)phenyl)-3,6-dimethylpyrazine-2-carboxamide], the IC50 is over 100 nM.

In general, IC50 refers to the concentration needed to halve the response being measured.
